Laboratory results from patent publication US20100305174A1, “Novel Heterocyclic Derivatives” (ORCHID RESEARCH LABORATORIES LIMITED, priority 2005, published 2010).
Like-named read-outs stand apart in the source and are kept apart here.

Legend:
HT-29 = experiment: Inhibition of colon cancer cell growth (MTS); format: cell-based; conditions: 10 μM, six days, MTS viability
Experimental: (§1) HT-29 is a colon cancer cell line and they were grown in 96 well plates with seeding concentration of 1000 cells/well. The cells were pretreated with compounds mentioned in FIG. 3 at 10 μM concentrations or taxol at 1 and 2.5 μM concentration or DMSO for six consecutive days. Every 48 hrs they were stained with MTS dye and viability was checked accordingly.

DPP IV = target: T1, DPP IV (Homo sapiens, UniProt P27487); experiment: DPP IV assay (human plasma as source, H-gly-pro AMC substrate); format: biochemical; conditions: compared to vehicle control
T1 construct: using human plasma as a source of DPP IV; from tissue; host or cells: human plasma
T1 sequence (P27487 39-766 limits assumed): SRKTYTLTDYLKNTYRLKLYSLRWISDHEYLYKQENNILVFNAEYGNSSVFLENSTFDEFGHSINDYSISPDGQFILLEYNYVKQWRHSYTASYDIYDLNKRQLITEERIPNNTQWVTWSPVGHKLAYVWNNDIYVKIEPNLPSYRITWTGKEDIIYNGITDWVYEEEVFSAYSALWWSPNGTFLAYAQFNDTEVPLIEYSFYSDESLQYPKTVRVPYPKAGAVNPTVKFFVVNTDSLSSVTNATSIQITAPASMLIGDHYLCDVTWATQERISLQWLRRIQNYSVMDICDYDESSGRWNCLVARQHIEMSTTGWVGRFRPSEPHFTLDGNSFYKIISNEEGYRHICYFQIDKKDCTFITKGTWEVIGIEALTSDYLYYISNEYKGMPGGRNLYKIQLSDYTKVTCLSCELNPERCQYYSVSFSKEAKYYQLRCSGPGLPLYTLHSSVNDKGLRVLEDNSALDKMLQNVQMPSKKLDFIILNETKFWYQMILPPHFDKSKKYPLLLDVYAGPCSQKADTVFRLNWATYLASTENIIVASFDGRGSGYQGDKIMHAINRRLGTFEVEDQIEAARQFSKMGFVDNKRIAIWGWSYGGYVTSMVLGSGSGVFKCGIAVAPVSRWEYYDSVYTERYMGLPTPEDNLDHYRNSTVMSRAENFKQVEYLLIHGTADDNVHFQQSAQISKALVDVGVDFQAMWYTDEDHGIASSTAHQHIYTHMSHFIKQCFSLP
Experimental: DPP IV assay is carried by using human plasma as a source of DPP IV. The compounds were incubated at a concentration of 1 and 10 μM in assay buffer containing DPP IV enzyme. The compounds were incubated for 1 hr and then the substrate H-gly-pro AMC was added and further incubated for 20 min and then the reaction was stopped on addition of 25% glacial acetic acid. The plates were read in a spectrofluorimeter to get RFU on setting excitation wavelength of 360 nm and emission wavelength of 460 nm. Percentage inhibition is calculated as compared to vehicle control.

TNF-α = TNF-α inhibition in LPS-challenged human PBMC; format: cell-based; conditions: Homo sapiens, PBMC, LPS 100 ng/mL, 20 hours, read-out: % Inhibition TNF alpha
Experimental: (§2) Human PBMC cells were cultured and incubated with compounds listed in table-4 at 1 and 10 μM concentrations. Cells (1×10^6/mL) were challenged with lipopolysaccharides (LPS) at a concentration of (100 ng/mL) for 20 hours. Cell supernatant was analyzed for the presence of TNF-α, IL-1β and IL-6 cytokines by antibody directed enzyme-linked immunoassay.

MCF-7 = experiment: Inhibition of breast cancer cell growth (MTS); format: cell-based; conditions: 10 μM, six days, MTS viability
Experimental: as §1, with “MCF-7” for “HT-29”, “breast” for “colon”, “at” for “with seeding concentration of”, “2” for “3”, “concentration” for “concentrations”

IL-1β = IL-1β inhibition in LPS-challenged human PBMC; format: cell-based; conditions: Homo sapiens, PBMC; 10 μM, LPS 100 ng/mL, 20 hours; read-out: % Inhibition IL1beta
Experimental: as §2

[1] = tested on: streptozotocin induced diabetic mice; experiment: Antidiabetic activity in streptozotocin induced diabetic mice; format: in vivo, Swiss albino mice; conditions: Mus musculus, 168 h, 50 mg/kg oral, 7 days, plasma, compared to control group
Experimental: Swiss albino mice of either sex were used in the study at the age of 10 weeks. Diabetes was induced in animals by injecting streptozotocin by i.p. route at a dose of 200 mg/kg body weight. 48 hours after streptozotocin administration, the animals were kept for fasting for 6 hours and blood was collected and plasma separated and glucose was estimated. Animals showing greater than 200 mg/dl glucose levels were considered as diabetic and these animals were randomly distributed into various groups. The compounds listed in the table 3 were administered at a dose of 50 mg/kg body weight by oral route for 7 days. Later animals were fasted for 6 hours and blood was collected and plasma separated. Biochemical estimations like glucose, cholesterol and triglycerides were carried out using the plasma. The effect of compounds mentioned in the table was expressed in terms of percentage reduction in biochemical values as compared to control group.

3T3-L1 cells = experiment: Glucose uptake assay using 3T3-L1 cells; format: cell-based; conditions: statement in words, table-1 assay
Experimental: 3T3-L1 cells were differentiated by the addition of differentiation cocktail (72 μg/ml insulin, 0.5 mM IBMX, 400 ng/ml Dexamethasone) for 4 days and later fed with media without differentation cocktail for 7-8 days. After differentiation the cells were incubated with the either reference compound BLX-1002 or compounds listed in the table 1 at 1 μM concentrations for 72 hours and carried out the glucose uptake assay for 10 min by the addition of KRP buffer supplemented with 2.5 μCi/ml ^14C deoxy glucose. Stimulation Index is defined as the amount of ^14C Deoxyglucose uptake induced by 1 μM of BLX-1002 incubated for 72 hrs in an assay condition as per protocol described above with differentiated 3T3-L1 adipocytes. Values of compounds mentioned in table-1 are with reference to stimulation index of reference compound BLX-1002.

3T3-L1 fibroblasts = experiment: Adipogenesis assay in 3T3-L1 (Oil-red-O staining); format: cell-based
Experimental: All known PPARγ agonists induce differentiation in fibroblast cells. The adipogenic potential of these compounds is correlated with their affinity to this receptor. To check quickly the affinity of compounds to these receptors, 3T3-L1 fibroblasts were treated with either DMSO control or rosiglitazone as positive control or the compounds at 1 μM concentration for several days. On day 13th, the differentiated adipocytes were stained with Oil-red-O (Sigma) and washed thoroughly to remove unbound stain and visualized under Olympus microscope. […] This is an indirect proof that example 78 have no affinity to PPARγ receptor.

SMILES	inhibition of colon cancer cell growth (HT-29)	inhibition at 1 µM (DPP IV; 1 μM) [%]	inhibition at 10 µM (DPP IV; 10 μM) [%]	inhibition at 1 µM (TNF-α; 1 μM) [%]	inhibition at 10 µM (TNF-α; 10 μM) [%]	inhibition of breast cancer cell growth (MCF-7)	inhibition at 10 µM (IL-1β) [%]	inhibition in vivo at 50 mg/kg ([1]; read-out: % Reduction Cholesterol) [%]	inhibition in vivo at 50 mg/kg ([1]; read-out: % Reduction Glucose) [%]	inhibition in vivo at 50 mg/kg ([1]; read-out: % Reduction Triglycerides) [%]	glucose uptake activity (3T3-L1 cells)	adipogenesis (Oil-red-O staining) (3T3-L1 fibroblasts; 1 μM, stained on day 13)	adipogenesis DRC, Oil-red-O staining (3T3-L1 fibroblasts; at tested concentrations)	affinity to PPARγ receptor (3T3-L1 fibroblasts; indirect proof from adipogenesis assay)
CN1C(=O)OCC1Cc1ccc(Oc2ccc(/C=C3\C(=O)Nc4ccccc43)cc2C(F)(F)F)cc1 (centres unmarked) [Example 14]	strong inhibitor	4.64	7.42	15.9	25.4	strong inhibitor	32.1							
CCN1C(=O)OCC1Cc1ccc(Oc2ccc(CC3SC(=S)NC3=O)cc2)cc1 (centres unmarked) [Example 78, 3-ethyl-4-(4-{4-[(4-oxo-2-thioxo-1,3-thiazolidin-5-yl)methyl]phenoxy}benzyl)-1,3-oxazolidin-2-one]								59	45.4	44.2	good glucose uptake activity	remained unchanged	did not show significant staining	no affinity
